From PubChem BioAssay (NCI)
Values joined by “and” are separate entries in the source; they are usually repeats but may differ in a detail not shown here. Identical values can stand only once.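 Briefly, cells in 96-well plates were exposed to five compound concentrations for 48 h, and endpoints were estimated by linear interpolation. Here, GI50 denotes the concentration required for 50% inhibition of growth. TGI: concentration producing complete growth inhibition.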

Columns and labels:
Experiment in all cases: NCI-60 cell line screen, 48 h
[1] = tested on: A498 renal
[2] = tested on: A549 NSCLC
[3] = tested on: HCT-116 colon
[4] = tested on: HOP-92 NSCLC
[5] = tested on: K-562 leukemia
[6] = tested on: KM12 colon
[7] = tested on: MOLT-4 leukemia
[8] = tested on: NCI-H226 lung
[9] = tested on: NCI-H460 lung
[10] = tested on: NCI/ADR-RES ovarian
[11] = tested on: OVCAR-3 ovarian
[12] = tested on: OVCAR-5 ovarian
[13] = tested on: OVCAR-8 ovarian
[14] = tested on: PC-3 prostate
[15] = tested on: RXF 393 renal
[16] = tested on: SF-268 CNS
[17] = tested on: SNB-19 CNS
[18] = tested on: SNB-75 CNS
[19] = tested on: UO-31 renal

Row | Structure (SMILES) | TGI [1] [µM] | TGI [2] [µM] | TGI [3] [µM] | TGI [4] [µM] | TGI [5] [µM] | TGI [6] [µM] | TGI [7] [µM] | TGI [8] [µM] | TGI [9] [µM] | TGI [10] [µM] | TGI [11] [µM] | TGI [12] [µM] | TGI [13] [µM] | TGI [14] [µM] | TGI [15] [µM] | TGI [16] [µM] | TGI [17] [µM] | TGI [18] [µM] | TGI [19] [µM] | GI50 [4]
1 | CCN(CC)CCCNc1ccc([N+](=O)[O-])c2nc3ccc(OC)cc3c(N)c12 | > 10 | 3.61 | 2.49 | > 10 | 4.79 | 3.16 | 3.86 | > 10 | 3.32 | > 6.02 | > 6.31 | > 10 | 5.6 | 3.31 | > 10 | 3.57 | > 6.29 | 3.65 | > 10 | 
2 | CN1N=C(c2ccccc2)C(C(c2ccccc2[N+](=O)[O-])C2C(=O)N(C)N=C2c2ccccc2)C1=O (centres undefined) | > 100 | > 100 | > 100 | > 100 | > 100 | > 100 | 72.7 | > 96.5 | > 100 | > 100 | > 100 | > 100 | > 100 | > 100 | > 100 | > 100 | > 100 | > 100 | > 100 | 
3 | CC(=O)C1(C)CC(C#N)(C#N)C(C#N)=C1N (centres undefined) | > 100 | > 100 | > 100 | 55.3 | > 100 | > 100 | > 100 | > 100 |  | > 100 | > 100 | > 100 | > 100 | > 100 | > 100 | > 100 | > 100 | > 100 | > 100 | 
4 | CCN(CC)c1ccc2cc(C(=O)NCc3ccccc3)c(=N)oc2c1 | > 100 | > 100 | > 100 | > 100 | > 26 | > 100 | > 100 | > 100 | > 100 | > 100 | > 100 | > 100 | > 100 | > 100 | > 100 | > 100 | > 100 | > 100 | 97.3 | 
5 | CCN(CC)C(=S)SC1C(=O)NC(=O)NC1=O | 6.06 | > 100 | > 100 | > 100 | > 100 | > 100 | > 100 | > 100 | 12.7 | > 100 | > 100 | > 100 | > 100 | > 100 | > 100 | > 100 |  | > 100 | > 100 | 
6 | CC1(C)S[C@H](CN)N[C@H]1C(=O)OC(c1ccccc1)c1ccccc1 | 70.4 | > 100 | > 100 | 91.6 | 55.8 | > 100 | 74.9 | > 100 |  | > 100 |  | > 100 | > 100 | 92.4 | > 100 | > 100 |  | > 100 | 92.6 | 
7 | COc1ccc(NC(=O)CC(=O)NNC(Sc2ccccc2)c2cc(N=Nc3ccc(Br)cc3)ccc2O)cc1 (centres undefined) | > 10 | > 10 | > 10 | > 10 | > 10 | > 10 | > 10 | > 10 | > 10 | > 10 | > 10 | > 10 | > 10 | > 10 | > 10 | > 10 | > 10 | > 10 | > 10 | 
8 | Cc1cc(S(=O)(=O)Nc2n[nH]c(Nc3ccc4ccccc4c3)n2)c(S)cc1Cl | > 100 | > 100 | > 100 | > 100 | > 100 | 95 | > 100 | > 100 | > 100 | > 100 | 51.7 | > 100 | > 100 | > 100 | > 100 | > 100 | > 100 | > 100 | > 100 | 
9 | CC(C)[Si]1(C(C)C)OCC2OC(n3c(C(=O)c4ccccc4)cc(=O)[nH]c3=O)CC2O[Si](C(C)C)(C(C)C)O1 (centres undefined) | 24.8 | 20.5 | 9.95 | 7.14 | > 100 | 8.51 | 4.76 | 5.87 | 15.9 | 26.8 | 5.09 | 10.1 | 4.43 | 6.22 | 7.37 | 8.26 | 22.4 | 6.7 | 6.98 | 
10 | CC(C)CC(NP(=O)(O)OC1OC(C)C(O)C(O)C1O)C(=O)NC(Cc1c[nH]c2ccccc12)C(=O)O (centres undefined) | > 100 | > 100 | > 100 | > 100 | > 100 | > 100 | > 100 | > 100 | > 100 | > 100 | > 100 | > 100 | > 100 | > 100 |  | > 100 | > 100 | > 100 | > 100 | 
11 | NC(=O)NNCc1c(-c2ccccc2)no[n+]1[O-] | > 100 | > 100 | > 100 | > 100 | > 100 | > 100 | > 100 | > 100 | > 100 | > 100 | > 100 | > 100 | > 100 | > 100 | > 100 | > 100 | > 100 | > 100 | > 100 | 
12 | COc1cc(C2c3[nH]c4ccccc4c3[C@@H](Nc3ccc(C#N)cc3)[C@H]3COC(=O)N23)cc(OC)c1O (some centres undefined) | 0.777 | 0.421 | 2.11 | > 4.61 | > 10 |  | 0.0634 | 0.651 | 0.342 | > 10 | 2.21 | 4.54 | 0.933 | 6.6 | 4.12 | 0.909 | > 10 | 0.763 | 2.57 | 
13 | C[C@@H]1CCC2C(C)(C)C(/C=C\C=O)C3(C)OC213 (some centres undefined) | > 100 | > 100 | 98.2 | 93.9 | > 100 | > 100 | 86.9 |  | > 100 | > 100 | > 100 | 69.6 | 44.5 | > 100 | > 100 | > 100 | > 100 | > 100 | > 100 | 
14 | O=C(Cn1c(=O)oc2ccc(C(=O)c3ccc(F)cc3)cc21)c1ccccc1 | 93.3 | > 100 | > 100 | > 100 | > 100 | > 100 | > 100 | > 100 | > 100 | > 100 |  | > 100 | > 100 | > 100 | > 100 | > 100 | > 100 | > 100 | > 100 | 
15 | NC(=O)C(=CNC(=S)Nc1ccc(S(=O)(=O)Nc2ccccn2)cc1)C(N)=O | > 100 | > 100 | > 100 | > 100 | > 100 | > 100 | 5.76 | > 100 | > 100 | > 100 | > 100 | > 100 | > 100 | > 100 | > 100 | > 100 | > 100 | > 100 | > 100 | 
16 | CN=C(N)N=Nc1c(O)[nH]c2ccccc12 | > 100 | > 100 | > 100 | > 100 | > 100 | > 100 | > 100 | > 100 | > 100 | > 100 |  | > 100 | > 100 | > 100 | > 100 | > 100 | > 100 | > 100 | > 100 | 
17 | OC(Cc1ccc2ccccc2n1)(C(F)(F)Cl)C(F)(F)Cl | > 10 | > 10 | > 10 | > 10 | > 10 | > 10 | > 10 | > 10 | > 10 | > 10 | > 10 | > 10 | > 10 | > 10 |  | > 10 | > 10 | > 10 | > 10 | 
18 | CCCCCCNC(=S)N/N=C(\C)c1ccccn1 | 14.4 | 14.6 | 15.9 | 2.25 |  | 8.97 |  | 6.28 | 8.81 | 30.6 | 21.8 | 25.9 | 10.2 | 24.1 | 12.5 | 17.8 | 21 | 23.9 | 10.9 | 
19 | Cc1cccc(/C=N\NC(=S)N2CCCCC2)n1 | 0.347 | > 100 | 0.125 | > 100 | > 100 | > 100 |  | 0.747 | 0.788 | 0.43 |  | > 100 | 0.582 | > 100 | 0.593 | > 100 | > 100 | 9.32 | 26.2 | 
20 | c1ccc(-c2c3c(nc4c2CC[C@H]4NC2=NCCN2)[C@@H](NC2=NCCN2)CC3)cc1 | > 100 | > 100 | > 100 | > 100 | > 100 | > 100 | > 100 | > 100 | > 100 | > 100 | > 100 | > 100 | > 100 | > 100 | > 100 | > 100 |  | > 100 | > 100 | 
21 | CC(=O)OCC1OC(n2c(N)c(C#N)c(C)c(C#N)c2=S)C(OC(C)=O)C(OC(C)=O)C1OC(C)=O (centres undefined) | > 100 | > 100 | > 100 | > 100 |  | > 100 | > 100 | > 100 | > 100 | > 100 | > 100 | > 100 | > 100 | > 100 | > 100 | > 100 | > 100 | > 100 | > 100 | 43.8 µM and > 100 µM
22 | CCOC(=O)c1nc2ccc(C(F)(F)F)cc2nc1Nc1ccc(F)cc1 | > 100 | 82.9 | > 100 | 98.9 | > 100 | > 100 | > 100 |  | > 100 | > 100 | > 100 | > 100 | > 100 | > 100 | > 100 | > 100 | > 100 | 84.3 | > 100 | 
23 | CCOC(=O)c1nc2ccccc2nc1Oc1ccc(C#N)cc1 | > 100 | > 100 | > 100 | > 100 | > 100 | > 100 | > 100 | > 100 | > 100 | > 100 | > 100 | > 100 | > 100 | > 100 | > 100 | > 100 | > 100 |  | > 100 | 
24 | O=C(c1ccccc1)c1ccc2c(c1)nc1n2C(c2c(F)cccc2F)SC1 (centres undefined) | 72.5 | > 100 | 42.2 | > 100 |  | 66.7 |  | > 100 | > 100 | > 100 | 96.2 | > 100 | > 100 | > 100 | > 100 | > 100 | > 100 | 99 | 54.8 | 
25 | O=[N+]([O-])c1ccc(C2=NOC(c3ccc(Cl)cc3)N2C23CC4CC(CC(C4)C2)C3)cc1 (centres undefined) | > 100 | > 100 | > 100 | > 100 | > 100 | > 100 | > 100 | > 100 | > 100 | > 100 | > 100 |  | > 100 | > 100 | 9.89 | > 100 | > 100 | > 100 | > 100 | 
